# Test results: patent publication US8088791B2, “Antibacterial agents” (Biots Scientific Management Pty Ltd, priority 2006, dated 2012)
# Like-named read-outs stand apart in the source and are kept apart here.
# Columns and labels:
# Assay type in all cases: cell-based
# Bacillus subtilis 168CA = test: Minimum Inhibitory Concentration (MIC) testing, broth microdilution, Bacillus subtilis; settings: Bacillus subtilis 168CA; read-out: Bacillus subtilis MICs Activity
# In short: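 MICs were scored A (≦8 μg/ml), B (16–64 μg/ml) or C (>64 μg/ml), read as the lowest concentration preventing visible growth by eye and spectrophotometry. Plates incubated overnight (16–20 h) at 37 °C, inoculum OD 0.09 diluted 1:100 in 2× broth, per NCCLS guidelines.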
# [1] = test system: Staphylococcus aureus ATCC29213; test: Minimum Inhibitory Concentration (MIC) testing, broth microdilution, Staphylococcus aureus; settings: Staphylococcus aureus ATCC29213; read-out: Staphylococcus aureus MICs Activity
# In short: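 Broth microdilution per NCCLS M7-A5 in Mueller Hinton broth, with compound in 1.6% DMSO and inoculum at OD 0.09 diluted 1:100. Plates incubated 16–20 h at 37°C. MIC is the lowest concentration with no visible growth; scored A ≤8, B 16–64, C >64 μg/ml.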
# [2] = test system: various bacterial species; test: Minimum Inhibitory Concentration (MIC) testing, broth microdilution, other bacterial species
# Protocol: (§1) Compounds of this invention were tested for antimicrobial activity by susceptibility testing in liquid media. MICs for compounds against each strain were determined by a broth microdilution method according to the National Committee for Clinical Laboratory Standards (NCCLS) guidelines. (NCCLS. 2000. Methods for dilution antimicrobial susceptibility tests for bacteria that grow aerobically—fifth edition. Approved standard M7-A5. NCCLS, Wayne, Pa.)
# (§2) Briefly, test compounds are prepared in 100 μl of 1.6% DMSO solution in multiwell plates. Several bacterial colonies from a freshly streaked plate are transferred to an appropriate rich broth, such as Mueller Hinton. The cell suspension is adjusted to an optical density of 0.09 and further diluted 1:100 with warm 2× broth. This cell suspension is dispensed into the wells containing compound solution so that the final volume is 200 μl. The plates are incubated overnight (16-20 hours) at 37° C. and turbidity is scored by eye and quantified spectrophotometrically. The MIC is defined as the lowest concentration inhibiting visible growth.
# Some of the Examples were also tested for activity against other bacterial species. […] Activities were again scored as ‘A’ if the MIC was ≦8 micrograms/ml, ‘B’ if the MIC was 16 to 64 micrograms/ml and ‘C’ if the MIC was greater than 64 micrograms/ml.
# [3] = test system: staphylococcal clinical isolates; test: Minimum Inhibitory Concentration (MIC) testing, broth microdilution, staphylococcal clinical isolates; settings: for MIC: read-out: MIC Activity against clinical isolate
# Protocol: as §1, §2
# Some of the Examples were also tested for activity against staphylococcal clinical isolates. […] Activities were again scored as ‘A’ if the MIC was ≦8 micrograms/ml, ‘B’ if the MIC was 16 to 64 micrograms/ml and ‘C’ if the MIC was greater than 64 micrograms/ml.
# [4] = Staphylococcus epidermidis, ATCC12228, read-out: MIC Activity Staphylococcus epidermidis ATCC 12228
# [5] = Staphylococcus haemolyticus, ATCC29970, read-out: MIC Activity Staphylococcus haemolyticus ATCC 29970
# [6] = Bacillus cereus, ATCC14579, read-out: MIC Activity Bacillus cereus ATCC 14579
# [7] = Staphylococcus saprophyticus, ATCC15305, read-out: MIC Activity Staphylococcus saprophyticus ATCC 15305
compound,measurement,setting,value
"COc1ccc(-c2nc(COc3ccc(F)c(C(N)=O)c3F)sc2-c2ccc(OC)cc2)cc1 [Example 282, 2,6-Difluoro-3-[5-(4-methoxy-phenyl)-4-(4-methoxy-phenyl)-thiazol-2-ylmethoxy]-benzamide]",MIC,Bacillus subtilis 168CA,< 8 µg/mL
same,MIC,[1],< 8 µg/mL
same,MIC,[2]; [4],< 8 µg/mL
"C#CCCCCCCCCCOc1ccc(F)c(C(N)=O)c1F [Example 88, 2,6-Difluoro-3-(10-undecynyloxy)benzenecarboxamide]",MIC,Bacillus subtilis 168CA,< 8 µg/mL
same,MIC,[1],< 8 µg/mL
same,MIC,[2]; [4],< 8 µg/mL
"C#CCCCCCCCCCOc1cccc(C(N)=O)c1 [Example 46, 3-(10-Undecynyloxy)benzenecarboxamide]",MIC,Bacillus subtilis 168CA,< 8 µg/mL
same,MIC,[1],< 8 µg/mL
same,MIC,[2]; [4],< 8 µg/mL
"CCCc1ccc2sc(COc3ccc(F)c(C(N)=O)c3F)nc2c1 [Example 135, 2,6-Difluoro-3-(5-propyl-benzothiazol-2-ylmethoxy)-benzamide]",MIC,Bacillus subtilis 168CA,< 8 µg/mL
same,MIC,[1],< 8 µg/mL
same,MIC,[2]; [5],< 8 µg/mL
"Cc1ccc(-c2nc(COc3ccc(F)c(C(N)=O)c3F)cs2)cc1 [Example 236, 2,6-Difluoro-3-[2-(4-methylphenyl)-1,3-thiazol-4-yl]methoxybenzenecarboxamide]",MIC,Bacillus subtilis 168CA,< 8 µg/mL
same,MIC,[1],< 8 µg/mL
same,MIC,[2]; [6],< 8 µg/mL
same,MIC,[2]; [7],< 8 µg/mL
same,MIC Activity against clinical isolate,"[3]; S. aureus No. 753, Oxacillin S, Hospital",A (‘A’ if the MIC was ≦8 micrograms/ml)
same,MIC Activity against clinical isolate,"[3]; S. aureus No. 757, Oxacillin R, Tet-R, MI-R, Hospital (tetM)",A (‘A’ if the MIC was ≦8 micrograms/ml)
same,MIC Activity against clinical isolate,"[3]; S. aureus No. 1134, Oxacillin S, Hospital",A (‘A’ if the MIC was ≦8 micrograms/ml)
same,MIC Activity against clinical isolate,"[3]; S. aureus No. 1135, Oxacillin R, Van-S, LZD-S, Hospital",A (‘A’ if the MIC was ≦8 micrograms/ml)
same,MIC Activity against clinical isolate,"[3]; S. aureus No. 1651, Oxacillin R, Van-S, LZD-R, Hospital (G2576T, G)",A (‘A’ if the MIC was ≦8 micrograms/ml)
same,MIC Activity against clinical isolate,"[3]; S. aureus No. 1652, Oxacillin R, Van-S, LZD-R, Hospital (T2500T, A)",A (‘A’ if the MIC was ≦8 micrograms/ml)
same,MIC Activity against clinical isolate,"[3]; S. aureus No. 1662, Oxacillin S, Hospital",A (‘A’ if the MIC was ≦8 micrograms/ml)
same,MIC Activity against clinical isolate,"[3]; S. aureus No. 1725, Oxacillin R, Van-S, LZD-R, Hospital (G2576T)",A (‘A’ if the MIC was ≦8 micrograms/ml)
same,MIC Activity against clinical isolate,"[3]; S. aureus No. 1729, Oxacillin R, Tet-R, MI-R, Hospital",A (‘A’ if the MIC was ≦8 micrograms/ml)
same,MIC Activity against clinical isolate,"[3]; S. aureus No. 2011, Oxacillin R, Tet-R, MI-S, Hospital (tetK)",A (‘A’ if the MIC was ≦8 micrograms/ml)
same,MIC Activity against clinical isolate,"[3]; S. aureus No. 2012, Oxacillin R, Van-I, LZD-S, Hospital",A (‘A’ if the MIC was ≦8 micrograms/ml)
same,MIC Activity against clinical isolate,"[3]; S. aureus No. 2018, Oxacillin R, Van-I, LZD-S, Hospital",A (‘A’ if the MIC was ≦8 micrograms/ml)
same,MIC Activity against clinical isolate,"[3]; S. aureus No. 2142, Oxacillin R, CC-S, SXT-S, Community",A (‘A’ if the MIC was ≦8 micrograms/ml)
same,MIC Activity against clinical isolate,"[3]; S. aureus No. 2143, Oxacillin R, Rif-R, Community",A (‘A’ if the MIC was ≦8 micrograms/ml)
same,MIC Activity against clinical isolate,"[3]; S. aureus No. 2147, Oxacillin R, CC-S, SXT-S, Community",A (‘A’ if the MIC was ≦8 micrograms/ml)
same,MIC Activity against clinical isolate,"[3]; S. aureus No. 2149, Oxacillin R, CC-R (iMLS), SXT-S, Community",A (‘A’ if the MIC was ≦8 micrograms/ml)
same,MIC Activity against clinical isolate,"[3]; S. aureus No. 2150, Oxacillin R, CC-R, SXT-S, Community",A (‘A’ if the MIC was ≦8 micrograms/ml)
same,MIC Activity against clinical isolate,"[3]; S. aureus No. 2158, Oxacillin R, CC-R, Doxy-I, Community",A (‘A’ if the MIC was ≦8 micrograms/ml)
same,MIC Activity against clinical isolate,"[3]; S. aureus No. 2175, Oxacillin R, TMP-R, Community",A (‘A’ if the MIC was ≦8 micrograms/ml)
same,MIC Activity against clinical isolate,"[3]; S. epidermidis No. 831, Oxacillin R",A (‘A’ if the MIC was ≦8 micrograms/ml)
same,MIC Activity against clinical isolate,"[3]; S. epidermidis No. 1139, Oxacillin S",A (‘A’ if the MIC was ≦8 micrograms/ml)
same,MIC Activity against clinical isolate,"[3]; S. epidermidis No. 1142, Oxacillin R",A (‘A’ if the MIC was ≦8 micrograms/ml)
same,MIC Activity against clinical isolate,"[3]; S. epidermidis No. 1144, Oxacillin R",A (‘A’ if the MIC was ≦8 micrograms/ml)
same,MIC,"[3]; Staphylococcus aureus, ATCC29213, S. aureus No. 0100, Oxacillin S, ATCC 29213",< 8 µg/mL
same,MIC,"[3]; Staphylococcus aureus, S. aureus No. 1015, Oxacillin R, Van-S, LZD-S, Hospital",< 8 µg/mL
same,MIC,"[3]; Staphylococcus epidermidis, S. epidermidis No. 835, Oxacillin S",< 8 µg/mL
"NC(=O)c1c(F)ccc(OCc2nc3cc(-c4ccccc4)ccc3s2)c1F [Example 114, 2,6-Difluoro-3-(5-phenyl-benzothiazol-2-ylmethoxy)-benzamide]",MIC,Bacillus subtilis 168CA,< 8 µg/mL
same,MIC,[1],< 8 µg/mL
same,MIC,[2]; [6],< 8 µg/mL
same,MIC,[2]; [7],< 8 µg/mL
"NC(=O)c1c(F)ccc(OCc2ccc3ccc(Cl)cc3n2)c1F [Example 111, 3-(7-Chloro-quinolin-2-ylmethoxy)-2,6-difluoro-benzamide]",MIC,Bacillus subtilis 168CA,< 8 µg/mL
same,MIC,[1],< 8 µg/mL
same,MIC,[2]; [7],< 8 µg/mL
"C#CCCCCCCCCCOc1cccc(C(N)=O)c1F [Example 177, 2-Fluoro-3-(10-undecynyloxy)benzenecarboxamide]",MIC,Bacillus subtilis 168CA,< 8 µg/mL
same,MIC,[1],< 8 µg/mL
same,MIC,[2]; [4],< 8 µg/mL
"CCCC/C=C\CCCCOc1ccc(F)c(C(N)=O)c1F [Example 87, 2,6-Difluoro-3-[(Z)-5-decenyloxy]benzenecarboxamide]",MIC,Bacillus subtilis 168CA,< 8 µg/mL
same,MIC,[1],< 8 µg/mL
same,MIC,[2]; [4],< 8 µg/mL
"COc1ccc(-c2nc(COc3ccc(F)c(C(N)=O)c3F)sc2-c2ccccc2)cc1 [Example 287, 2,6-Difluoro-3-[4-(4-methoxy-phenyl)-5-phenyl-thiazol-2-ylmethoxy]-benzamide]",MIC,Bacillus subtilis 168CA,< 8 µg/mL
same,MIC,[1],< 8 µg/mL
same,MIC,[2]; [5],< 8 µg/mL
"NC(=O)c1c(F)ccc(OCc2nc3cc(Cl)cnc3s2)c1F [Example 139, 3-(6-Chloro-thiazolo[5,4-b]pyridin-2-ylmethoxy)-2,6-difluoro-benzamide]",MIC,Bacillus subtilis 168CA,< 8 µg/mL
same,MIC,[1],< 8 µg/mL
same,MIC,[2]; [4],< 8 µg/mL
same,MIC,[2]; [5],< 8 µg/mL
"CCCCCCCCCOc1cccc(C(N)=O)c1F [Example 175, 2-Fluoro-3-(nonyloxy)benzenecarboxamide]",MIC,Bacillus subtilis 168CA,< 8 µg/mL
same,MIC,[1],< 8 µg/mL
same,MIC,[2]; [4],< 8 µg/mL
"CCCCCC/C=C/COc1ccc(F)c(C(N)=O)c1F [Example 84, 2,6-Difluoro-3-[(E)-2-nonenyloxy]benzenecarboxamide]",MIC,Bacillus subtilis 168CA,< 8 µg/mL
same,MIC,[1],< 8 µg/mL
same,MIC,[2]; [4],< 8 µg/mL
"NC(=O)c1c(F)ccc(OCc2nc3ccccc3s2)c1F [Example 215, 3-(1,3-Benzothiazol-2-ylmethoxy)-2,6-difluorobenzenecarboxamide]",MIC,Bacillus subtilis 168CA,< 8 µg/mL
same,MIC,[1],< 8 µg/mL
same,MIC,[2]; [4],< 8 µg/mL
"COc1ccc(-c2coc(COc3ccc(F)c(C(N)=O)c3F)n2)cc1 [Example 311, 2,6-Difluoro-3-[4-(4-methoxy-phenyl)-oxazol-2-ylmethoxy]-benzamide]",MIC,Bacillus subtilis 168CA,< 8 µg/mL
same,MIC,[1],< 8 µg/mL
same,MIC,[2]; [4],< 8 µg/mL
"NC(=O)c1cccc(OCc2nc(-c3ccc(Cl)cc3)cs2)c1F [Example 271, 3-[4-(4-Chloro-phenyl)-thiazol-2-ylmethoxy]-2-fluoro-benzamide]",MIC,Bacillus subtilis 168CA,< 8 µg/mL
same,MIC,[1],< 8 µg/mL
same,MIC,[2]; [4],< 8 µg/mL
"NC(=O)c1c(F)ccc(OCc2nc(-c3ccc(F)cc3)no2)c1F [Example 245, 2,6-Difluoro-3-[3-(4-fluorophenyl)-1,2,4-oxadiazol-5-yl]methoxybenzenecarboxamide]",MIC,Bacillus subtilis 168CA,< 8 µg/mL
same,MIC,[1],< 8 µg/mL
"CCCCCC#CCCOc1cccc(C(N)=O)c1 [Example 51, 3-(3-Nonynyloxy)benzenecarboxamide]",MIC,Bacillus subtilis 168CA,< 8 µg/mL
same,MIC,[1],16 to 64 µg/mL
"NC(=O)c1c(F)ccc(OCc2nc(-c3cccc(O)c3)no2)c1F [Example 257, 2,6-Difluoro-3-[3-(3-hydroxyphenyl)-1,2,4-oxadiazol-5-yl]methoxybenzenecarboxamide]",MIC,Bacillus subtilis 168CA,< 8 µg/mL
same,MIC,[1],< 8 µg/mL
